{
  "source": "paper PMC5681922",
  "about": "“Systemic Responses of Multidrug-Resistant Pseudomonas aeruginosa and Acinetobacter baumannii Following Exposure to the Antimicrobial Peptide Cathelicidin-BF Imply Multiple Intracellular Targets” (Frontiers in Cellular and Infection Microbiology, 2017)",
  "key": {"[1]": {"test_system": "P. aeruginosa 1409", "experiment": "Membrane permeabilization assay (propidium iodide)", "format": "cell-based, Pseudomonas aeruginosa", "settings": "1 h at 25°C in LB, then PI 10 μg/mL 30 min, fluorescence microscope", "method": "Then, PI was added to a final concentration of 10 μg/mL. After 30 min of incubation at 25°C, the cells were washed 3 times with PBS and immediately imaged with a fluorescence microscope (Olympus, Japan) (Yu et al., [2015]).\nFigure 3 Bacterial plasma membrane permeabilization assay of cathelicidin-BF. Cathelicidin-BF and levofloxacin were incubated with MDR P. aeruginosa in Luria-Bertani medium at final concentrations of 4 × MIC (minimal inhibitory concentration) or ¼ × MIC. After incubation at 25°C for 1 h, bacteria were collected by centrifugation at 3,000 × g for 5 min and resuspended with PBS. The DNA-binding fluorescent dye PI was added to a final concentration of 10 μg/mL. After 30 min incubation at 25°C, the cells were washed 3 times with PBS and immediately imaged using a fluorescence microscope."}, "[2]": {"test_system": "P. aeruginosa 1409", "experiment": "Minimal inhibitory concentration (given as multiples of MIC)", "format": "cell-based, Pseudomonas aeruginosa", "settings": "MDR clinical isolate; MIC itself not given, only this multiple"}, "[3]": {"test_system": "P. aeruginosa 1409", "settings": "treated vs untreated, iTRAQ"}, "[4]": {"settings": "cathelicidin-BF at 1/2 MIC (4 μg/mL), 37°C, 2 h"}, "[5]": {"settings": "cathelicidin-BF change not categorized as differentially expressed"}},
  "data": [
    {"smiles": "C[C@H]1COc2c(N3CCN(C)CC3)c(F)cc3c(=O)c(C(=O)O)cn1c23", "note": "[levofloxacin, reference compound]", "values": [
      {"measurement": "integrity of bacterial membranes, PI staining at 4 × MIC", "setting": "[1]; 4 × MIC (cathelicidin-BF 32 μg/mL, levofloxacin 64 μg/mL)", "result": "showed red fluorescence"},
      {"measurement": "integrity of bacterial membranes, PI staining at ¼ × MIC", "setting": "[1]; ¼ × MIC (cathelicidin-BF 2 μg/mL, levofloxacin 4 μg/mL)", "result": "no red dyes were detected"},
      {"measurement": "4 × MIC", "setting": "[2]", "result": 64, "unit": "µg/mL"},
      {"measurement": "expression of protein Q9HVA1 (acetolactate synthase isozyme III small subunit)", "setting": "[3]; [4]", "result": "overexpressed"},
      {"measurement": "expression of protein Q9I3S7 (likely decarboxylase)", "setting": "[3]; [4]", "result": "overexpressed"},
      {"measurement": "expression of protein Q9HTV3 (3-octaprenyl-4-hydroxybenzoate carboxy-lyase)", "setting": "[3]; [5]", "result": "downregulated"},
      {"measurement": "expression of protein Q9I298 (putative 3-methylglutaconyl-ConA hydratase)", "setting": "[3]; [5]", "result": "downregulated"},
      {"measurement": "expression of protein Q9I5V3 (multifunctional CCA protein)", "setting": "[3]; levofloxacin change not categorized as differentially expressed", "result": "downregulated"}
    ]}
  ]
}
